Literature values in US20230039272A1, “COMPOSITION FOR IMPROVED ENERGY, FOCUS AND CLARITY” (Gwella Mushrooms Inc., priority 2021, published 2023).
Residues, ends and D or L forms follow the SMILES beside them. *: point of attachment. PhAc = O=C(Cc1ccccc1)*

Legend:
[1] = high doses for long periods of time
[2] = patients with mild to moderate dementia

Structure (SMILES) | cognition restoring effect (Amyloid Beta exposure; animal models of Alzheimer's Disease, preliminary studies) | neuroprotective effect (cell viability, calcium homeostasis, Reactive Oxygen Species levels, mitochondrial function, tau phosphorylation, neurite outgrowth) (Amyloid Beta exposure; impairments caused by Amyloid Beta exposure) | safety [1] | quality of life scale [2] | test scores on logical performance, attention, concentration, memory and spatial orientation [2] | step-down retention performance and acquisition performance in active-avoidance situations (in vivo) | learning of animals (pre-clinical studies)
CCOC(=O)CNC(=O)[C@@H]1CCCN1C(=O)Cc1ccccc1 [N-phenylacetyl-L-prolylglycine ethyl ester] (PhAc-Pro-Gly-OEt) | cognition restoring effect | neuroprotective effect | – | – | – | – | –
NC(=O)CN1CC(O)CC1=O (stereo not shown) [Oxiracetam] | – | – | save, even at high doses for long periods of time | improved quality of life scale | higher test scores | improve step-down retention performance and acquisition performance | improve learning of animals
